The source of these data is patent US8956999B2, “Herbicides” (Syngenta Limited, priority 2007, dated 2015).

Holding throughout (type): in vivo
Assay [1] relates to Setaria faberi (SETFA). The assay is described as follows: Example B post-emergence herbicidal test, glasshouse. Conditions: 312 h, rate 250 g/ha, evaluated after 13 days, read-out: Post-Emergence Activity SEFTA (100=total damage to plant; 0=no damage to plant). The procedure:
(§1) Seeds of a variety of test species were sown in standard soil in pots. After cultivation for one day (pre-emergence) or after 8 days cultivation (post-emergence) under controlled conditions in a glasshouse (at 24/16° C., day/night; 14 hours light; 65% humidity), the plants were sprayed with an aqueous spray solution derived from the formulation of the technical active ingredient in acetone/water (50:50) solution containing 0.5% Tween 20 (polyoxyethelyene sorbitan monolaurate, CAS RN 9005-64-5). The test plants were then grown in a glasshouse under controlled conditions in a glasshouse (at 24/16° C., day/night; 14 hours light; 65% humidity) and watered twice daily. After 13 days for pre and post-emergence, the test was evaluated (100=total damage to plant; 0=no damage to plant). Test Plants: Alopecurus myosuroides (ALOMY), Avena fatua (AVEFA), Setaria faberi (SETFA), Echinochloa crus-galli (ECHCG), Solanum nigrum (SOLNI) and Amaranthus retoflexus (AMARE)

The test system of assay [2] is Echinochloa crus-galli (ECHCG). The description is as above. Conditions: 312 h, rate 250 g/ha, evaluated after 13 days, read-out: Post-Emergence Activity ECHGG (100=total damage to plant; 0=no damage to plant). The procedure: as §1
Assay [3] relates to Amaranthus retoflexus (AMARE). The description is as above. The conditions noted are these: Amaranthus retroflexus, 312 h, rate 250 g/ha, evaluated after 13 days, read-out: Post-Emergence Activity AMARE (100=total damage to plant; 0=no damage to plant). The procedure: as §1
The test system of assay [4] is Alopecurus myosuroides (ALOMY). Described as above. The conditions noted are these: 312 h, rate 250 g/ha, evaluated after 13 days, read-out: Post-Emergence Activity ALOMY (100=total damage to plant; 0=no damage to plant). The procedure:
as §1

For assay [5], the system named is Avena fatua (AVEFA). The assay is described as above. The conditions noted are these: 312 h, rate 250 g/ha, evaluated after 13 days, read-out: Post-Emergence Activity AVEFA (100=total damage to plant; 0=no damage to plant). The procedure:
as §1

The test system of assay [6] is Setaria faberi (SETFA). The assay is described as follows: Example B pre-emergence herbicidal test, glasshouse. Conditions: Setaria faberi, 312 h, rate 250 g/ha, evaluated after 13 days, 100=total damage to plant, 0=no damage to plant, read-out: Pre-Emergence Activity SEFTA. The procedure: as §1
Assay [7] deals with Echinochloa crus-galli (ECHCG). The assay is described as above. Conditions: Echinochloa crus-galli, 312 h, rate 250 g/ha, evaluated after 13 days, 100=total damage to plant, 0=no damage to plant, read-out: Pre-Emergence Activity ECHGG. The procedure:
as §1

Assay [8] relates to Amaranthus retoflexus (AMARE). The description is as above. The conditions noted are these: Amaranthus retroflexus, 312 h, rate 250 g/ha, evaluated after 13 days, 100=total damage to plant, 0=no damage to plant. The procedure:
as §1

Assay [9] deals with Alopecurus myosuroides (ALOMY). The description is as above. Conditions: 312 h, rate 250 g/ha, evaluated after 13 days, 100=total damage to plant, 0=no damage to plant. The procedure: as §1
Assay [10] deals with Avena fatua (AVEFA). The description is as above. Conditions: 312 h, rate 250 g/ha, evaluated after 13 days, 100=total damage to plant, 0=no damage to plant. The procedure: as §1

As for `Cc1sc(-c2ccc(Cl)c(Cl)c2)nc1C1C(=O)C(C)(C)C(=O)C(C)(C)C1=O` [Compound T43], the pest or weed control at 250 g/ha in assay [1] worked out at 0%; in assay [2] it was 30%; in assay [3], 0%; in assay [4], 0%; in assay [5] it was 0%; in assay [6], 0%. In addition, the pest or weed control at 250 g/ha in assay [7], in [8], in assay [9] and in assay [10] was 0% each time.

On to `CCc1sc(-c2ccc(Cl)cc2C)nc1C1C(=O)C(C)(C)OC(C)(C)C1=O` [Compound T61], for which the pest or weed control at 250 g/ha in assay [1] came to 90%; in assay [2], 100%; in assay [3], 0%; in assay [4], 90%; in assay [5], 70%; in [6], 100%. The pest or weed control at 250 g/ha was determined as 100% in assay [7], 0% in assay [8], 80% in assay [9] and 0% in [10].

On to `Cc1sc(-c2ccc(Br)cn2)nc1C1=C(OC(=O)C(C)(C)C)C(C)(C)OC(C)(C)C1=O` [Compound P5], for which the pest or weed control at 250 g/ha in assay [1], in assay [2], in assay [3], in assay [4], in [5] and in [6] was 0% each time. The pest or weed control at 250 g/ha in [7], in [8], in assay [9] and in [10] was 0% in each case.

As to `CC(=O)OC1=C(c2nc(-c3ccc(Br)cn3)sc2C)C(=O)C(C)(C)OC1(C)C` [Compound P3], the pest or weed control at 250 g/ha in [1] stood at 90%; in [2], 90%; in assay [3] it was 0%; in [4], 50%; in assay [5], 30%; in [6], 20%. Further, the pest or weed control at 250 g/ha amounted to 30% in assay [7], 0% in assay [8], 20% in assay [9] and 0% in assay [10].

Turning to `CC(=O)OC1=C(c2sc(-c3ccc(Cl)cc3)nc2C)C(=O)C(C)(C)OC1(C)C` [Compound P9], the pest or weed control at 250 g/ha in assay [1] is 80%; in assay [2], 100%; in assay [3], 30%; in assay [4], 90%; in assay [5], 80%; in assay [6], 40%. Also, the pest or weed control at 250 g/ha in assay [7] came to 50%; in assay [8] it was 0%; in [9] it was 20%; in [10], 0%.

For `Cc1cc(Br)ccc1-c1nc(C2=C(OC(=O)C3CC3)C(C)(C)OC(C)(C)C2=O)c(C)s1` [Compound P7], the pest or weed control at 250 g/ha is 100% in [1]; 100% in [2]; 0% in assay [3]; 80% in assay [4]; 80% in assay [5]; 100% in assay [6]. For the same compound, the pest or weed control at 250 g/ha in assay [7] came out at 80%; in assay [8], 0%; in assay [9] it was 70%; in assay [10], 0%.

As to `CCc1sc(-c2c(C)cc(Cl)cc2F)nc1C1C(=O)C(C)(C)OC(C)(C)C1=O` [Compound T64], the pest or weed control at 250 g/ha came to 100% in assay [1]; 100% in assay [2]; 0% in assay [3]; 20% in assay [4]; 60% in [5]; 100% in [6]. The pest or weed control at 250 g/ha in assay [7] was 70%; in [8] it was 0%; in [9] it was 0%; in assay [10], 0%.

Regarding `CCc1sc(-c2ccc(Cl)c(F)c2)nc1C1C(=O)C(C)(C)OC(C)(C)C1=O` [Compound T48], the pest or weed control at 250 g/ha was found to be 100% in assay [1]; 100% in assay [2]; 0% in assay [3]; 100% in assay [4]; 100% in assay [5]; 70% in assay [6]. The pest or weed control at 250 g/ha in assay [7] is 50%; in assay [8], 0%; in assay [9], 30%; in assay [10] it was 60%.

On to `Cc1sc(-c2ccc(Br)cn2)nc1C1C(=O)C(C)(C)OC(C)(C)C1=O` [Compound T56], for which the pest or weed control at 250 g/ha is 90% in [1]; 80% in [2]; 0% in [3]; 30% in assay [4]; 20% in assay [5]; 20% in assay [6]. The pest or weed control at 250 g/ha in [7] amounted to 10%; in assay [8] it was 0%; in assay [9] it was 0%; in assay [10] it was 0%.

Turning to `CCc1sc(-c2ccc(OC(F)F)cc2)nc1C1C(=O)C(C)(C)OC(C)(C)C1=O` [Compound T62], the pest or weed control at 250 g/ha was determined as 100% in [1]; 100% in [2]; 0% in assay [3]; 100% in [4]; 100% in assay [5]; 100% in assay [6]. For the same compound, the pest or weed control at 250 g/ha stood at 60% in assay [7], 0% in assay [8], 90% in assay [9] and 0% in assay [10].

In the case of `CCc1sc(-c2ccc(SC)cc2)nc1C1C(=O)C(C)(C)OC(C)(C)C1=O` [Compound T69], the pest or weed control at 250 g/ha turned out to be 90% in assay [1]; 100% in [2]; 0% in assay [3]; 60% in assay [4]; 40% in [5]; 20% in assay [6]. Moreover, the pest or weed control at 250 g/ha was 20% in assay [7], 0% in [8], 0% in assay [9] and 0% in assay [10].

For `Cc1cc(-c2nc(C3C(=O)C(C)(C)C(=O)C(C)(C)C3=O)c(C)s2)ccc1Cl` [Compound T42], the pest or weed control at 250 g/ha came out at 0% in assay [1]; 20% in [2]; 0% in assay [3]; 0% in assay [4]; 0% in [5]; 0% in [6]. Also, the pest or weed control at 250 g/ha in assay [7] came out at 40%; in [8], 40%; in assay [9], 0%; in [10], 0%.
